In patent US20050009151A1, “Methods for the stereospecific and enantiomeric enrichment of beta-amino acids” (Pharmacia Corporation, priority 2003, published 2005):

Legend:
Format in all cases: biochemical
[1] = system: Variovorax paradoxus β-aminotransferase; experiment: Resolution of substrates with Variovorax paradoxus β-aminotransferase
Protocol: […] Reactions were typically run at 1 ml scale with gentle shaking at 26° C.
(§1) 10 ul of 2N HCl was added to a plastic screw capped vial and 90ul of sample was then added. The pH of the mixture confirmed to be below 4 and the mixture was centrifuged in a microcentrifuge at maximum speed for about 2 minutes to remove precipitated materials.
(§2) Samples were derivatized using Marfey's reagent, N•-(2,4-dinitro-5-fluorophenyl)-L-alaninamide. A stock solution of 10 mg/mL in acetone of this reagent was prepared. Either 20 or 40 ul of bioconversion sample was added to 20 ul 1.3 M KHCO3. To this was added 80 ul of the stock reagent solution, the vial sealed tightly, and heated at 70° C. for 10 minutes. As needed, after cooling to room temperature, the heated samples were centrifuged to remove solids. The supernatants were analyzed using an Eclipse XDB-C8 column, 4.6×150 mm, eluting with methanol gradient in water, from 50% methanol to 100% methanol. Both solvents were acidified with 0.1% trifluoroacetic acid.
(§3) For resolution experiments, the area of the peak consumed (converted to keto acid) was compared to the area remaining of the unconsumed peak, on the assumption that none was converted.

[2] = system: β-aminotransferase from Alcaligenes eutrophus; experiment: Resolution of substrates with cell lysate from Alcaligenes eutrophus
Protocol: (§4) A buffer consisting of 0.3M Tricine, 15 mM MgSO4, enough pyridoxal phosphate to impart a pale yellow color and 0.3M sodium glutamate (for deamination reactions) or 0.3 M 2-ketoglutarate monopotassium salt (for synthesis reactions) was prepared.
(§5) One part buffer was combined with two parts lysate and this mixture was then added to pre-weighed substrate to give a concentration of 1 mg/ml substrate. Reactions were typically run at 1 ml scale with gentle shaking at 26° C.
as §1, §2, §3

[3] = system: β-aminotransferase enzyme from Variovorax paradoxus (CC-KGbPHe-I14); experiment: D-β-aminotransferase keto acid substrate specificity; conditions: rate of conversion of D-β-phenylalanine to 3-keto-3-phenylpropionic acid as percent of the rate using α-ketoglutarate; 10 mg/ml α-keto acceptor, 1 hour, 37° C.
Protocol: Semi-purified β-aminotransferase enzyme from Variovorax paradoxus (CC-KGbPHe-I14) was assayed using D-β-phenylalanine as the amino donor, in an assay consisting of 100 mM potassium phosphate, 2 mg/ml DL-β-phenylalanine, 10 mg/ml α-keto acceptor and 0.1 mM pyridoxal phosphate, at pH 8.0. The reactions were run at 37° C. with mild stirring for 1 hour. At 1 hour reaction time, 0.1 ml samples were withdrawn, acidified with addition of 0.1 ml 0.1N HCl, and centrifuged. The supernatant solution was collected into HPLC sample vials. Conversion of DL-β-phenylalanine to 3-keto-3-phenylpropionate was quantified using reverse phase HPLC. The following keto acids were screened for activity: α-ketoglutaric acid, oxaloacetic acid, pyruvic acid, 3-oxoadipic acid, 2-oxoadipic acid, 1,3-acetonedicarboxylic acid, and 4-ketopimelic acid. The relative rates of conversion of D-β-phenylalanine to 3-keto-3-phenylpropionic acid using the various keto acceptors is reported as percent of the rate using α-ketoglutarate, the experimentally determined preferred acceptor.

[4] = system: Variovorax paradoxus β-aminotransferase; experiment: Synthesis of β-amino acid from β-keto acid with Variovorax paradoxus β-aminotransferase
Protocol: as §4, §5, §1, §2
For synthesis experiments, in which β-keto acid was converted to β-amino acid, the area of the peak(s) was compared to a standard curve derived for β-phenylalanine.

[5] = system: β-aminotransferase enzyme from Variovorax paradoxus; experiment: D-β-aminotransferase amino donor specificity; conditions: for substrate for the enzyme (amino donor): 2 mg/ml amino donor, 10 mg/ml α-ketoglutarate, 1 hour, 37° C.
Protocol: The same preparation of semi-purified β-aminotransferase enzyme from Variovorax paradoxus was then assayed using a-ketoglutarate as the keto acceptor, in an assay consisting of 100 mM potassium phosphate, 10 mg/ml α-ketoglutarate, 2 mg/ml amino donor and 0.1 mM pyridoxal phosphate, at pH 8.0. The reactions were run at 37° C. with mild stirring for 1 hour. At 1 hour reaction time, 0.1 ml samples were withdrawn, acidified with addition of 0.1 ml 0.1N HCl, and centrifuged. The supernatant solution was collected into HPLC sample vials. Conversion of an amino acid to the corresponding ketone was quantified using reverse phase HPLC. The following amino acids (as an amino donor) were screened for activity: α-(D)-phenylalanine, α-(L)-phenylalanine, β-(D)-phenylalanine, β-(L)-phenylalanine, (D)-3-amino-5-phenylpentanoic acid, and (L)-3-amino-5-phenylpentantoic acid.

[6] = system: Alcaligenes eutrophus L-β-aminotransferase; experiment: Substrate specificity of Alcaligenes eutrophus L-β-aminotransferase (crude cell homogenate); conditions: for MSB Culture Extract D(S)-b-Phe consumed at t = 1 Hr / MSB Culture Extract L(R)-b-Phe consumed at t = 1 Hr: cells grown in MSB; for MSB Culture Extract D(S)-b-Phe consumed at t = 1 Hr / MSB Culture Extract L(R)-b-Phe consumed at t = 1 Hr / NB Culture Extract of Alcaligenes eutrophus D(S)-b-Phe consumed at t = 1 Hr / NB Culture Extract of Alcaligenes eutrophus L(R)-b-Phe consumed at t = 1 Hr: keto acceptor with or without PLP as labelled; for NB Culture Extract of Alcaligenes eutrophus D(S)-b-Phe consumed at t = 1 Hr / NB Culture Extract of Alcaligenes eutrophus L(R)-b-Phe consumed at t = 1 Hr: cells grown in NB
Protocol: Cell-free homogenates were used in assays designed to determine substrate specificity. The assays contained: 0.1-0.3 mg/ml protein, 10 mg/ml keto acceptor, 1 mg/ml amino donor, 0.1 mM pyridoxal phosphate, and 100 mM potassium phosphate, at pH 8.0. The reactions were run at 37° C. with gentle stirring for 1 hour. At 1 hour reaction time, 0.1 ml samples were withdrawn, acidified with addition of 0.1 ml 0.1N HCl, and centrifuged. The supernatant solution was collected into HPLC sample vials. Conversion of amino acid to the corresponding ketone was quantified using reverse phase HPLC. Enzymatic activity was measured as the rate of conversion of amino donor in a one hour period. In a series of reactions, the enzymatic activity was determined with the following variables: inclusion or omission of pyridoxal phosphate, using α-ketoglutarate or pyruvate as a keto acceptor, and (D)- or (L)-β-phenylalanine as amino donor.

[7] = sodium sulfate purified β-aminotransferase, 3 hours

Compound: N[C@H](CC(=O)O)c1ccccc1 (racemic) [β-phenylalanine]
- Peak consumption (later eluting peak) ([1]; cell lysate, 5 hours): >99%
- Peak consumption (later eluting peak) ([1]; cell lysate, 23 hours): 82%
- change in the concentration of the later eluting stereoisomer ([2]; after one day): no detectable change
- earlier eluting peak remaining ([2]; after one day): not detectable

Compound: O=C(O)CC(=O)CC(=O)O [1,3-Acetonedicarboxylic Acid]
- Relative Activity [3]: 0%

Compound: O=C(O)CCCC(=O)C(=O)O [2-Oxoadipic Acid]
- Relative Activity [3]: 0.6%

Compound: NC1CCCCC1C(=O)O (stereo not drawn) [2-aminocyclohexanecarboxylic acid]
- Peak consumption (later eluting peak(s)) ([1]; cell lysate, 19 hours): >99%

Compound: O=C(O)CCC(=O)CC(=O)O [3-Oxoadipic Acid]
- Relative Activity [3]: 6%

Compound: CCCC(=O)CC(=O)O [3-Oxohexanoic acid]
- product stereoisomer peak observed ([4]; cell lysate, 19 hours): only later eluting peak was observed
- 3-aminohexanoic acid formed, using beta-phenylalanine as standard ([4]; cell lysate, approximately 50 mM substrate, approximately 60 mM glutamic acid, 19 hours): approximately 1 mg/mL

Compound: NC(CC(=O)O)c1cc2ccccc2o1 (stereo not drawn) [3-amino-3-(2-benzofuryl))propanoic acid]
- Peak consumption (later eluting peak) ([1]; cell lysate, 5 hours): 98%

Compound: NC(CC(=O)O)c1ccco1 (stereo not drawn) [3-amino-3-(2-furyl)propanoic acid]
- Peak consumption (earlier eluting peak) ([2]; 21 hours): 73%
- Peak consumption (earlier eluting peak) ([2]; 21 hours, listed as 3-amino-3-(2-furyl) propanoic acid): 73%

Compound: NC(CC(=O)O)c1ccc2ccccc2c1 (stereo not drawn) [3-amino-3-(2-naphthyl)propanoic acid]
- Peak consumption (later eluting peak) ([1]; cell lysate, 5 hours): 50%

Compound: NC(CC(=O)O)c1cccnc1 (stereo not drawn) [3-amino-3-(3-pyridyl)propanoic acid]
- Peak consumption (later eluting peak) ([1]; cell lysate, 5 hours): >95%

Compound: NC(CC(=O)O)c1ccsc1 (stereo not drawn) [3-amino-3-(3-thienyl)propanoic acid]
- Peak consumption (earlier eluting peak) ([2]; 21 hours): 82%
- Peak consumption (earlier eluting peak) ([2]; 22 hours): 82%

Compound: NC(CC(=O)O)c1ccc(Oc2ccccc2)cc1 (stereo not drawn) [3-amino-3-(4-phenoxyphenyl)propanoic acid]
- Peak consumption (later eluting peak) ([1]; cell lysate, 5 hours): 58%

Compound: NC(CC(=O)O)C1CCCCC1 (stereo not drawn) [3-amino-3-cyclohexylpropanoic acid]
- Peak consumption (later eluting peak) ([1]; cell lysate, 2 hours): >99%

Compound: NC(CC(=O)O)C1CC1 (stereo not drawn) [3-amino-3-cyclopropylpropanoic acid]
- early eluting peak observed ([1]; cell lysate, 0.225 M substrate, 0.45 M alpha-ketoglutarate, pH 8.1, 18.2 hours): 99.5%
- Peak consumption (later eluting peak) ([1]; cell lysate, 22 hours): 98%
- Peak consumption (earlier eluting peak) ([2]; 22 hours): approximately 42%
- Peak consumption (earlier eluting peak) ([2]; 22 hours, listed as 3-amino-3-cyclopropyl propanoic acid): 42%

Compound: CC(C)C(N)CC(=O)O (stereo not drawn) [3-amino-4-methylpentanoic acid]
- Peak consumption (later eluting peak) ([1]; cell lysate, 48 hours): 65%
- Peak consumption (later eluting peak) ([1]; cell lysate, 48 hours, listed as 3-amino-4-methylpentanoic): 65%

Compound: CCCC(N)CC(=O)O (stereo not drawn) [3-aminohexanoic acid]
- Peak consumption (later eluting peak) ([1]; cell lysate, 1 hour): >99%

Compound: O=C(O)CCC(=O)CCC(=O)O [4-Ketopimelic Acid]
- Relative Activity [3]: 0%

Compound: N[C@H](CCc1ccccc1)CC(=O)O [(D)-3-amino-5-phenylpenantoic acid, D- or (R)-3-amino-5-phenyl-pentanoic acid]
- substrate for the enzyme (amino donor) [5]: substrates for the enzyme

Compound: N[C@@H](CCc1ccccc1)CC(=O)O [(L)-3-amino-5-phenylpentantoic acid, L- or (S)-3-amino-5-phenyl-pentanoic acid]
- substrate for the enzyme (amino donor) [5]: Only β-(D)-phenylalanine and (D)-3-amino-5-phenylpenantoic acid were substrates

Compound: O=C(O)CC(=O)C(=O)O [Oxaloacetic Acid]
- Relative Activity [3]: 54%

Compound: CC(=O)C(=O)O [Pyruvic Acid]
- Relative Activity [3]: 14%
- MSB Culture Extract D(S)-b-Phe consumed at t = 1 Hr [6]: 7.789
- MSB Culture Extract L(R)-b-Phe consumed at t = 1 Hr [6]: 45.1865
- NB Culture Extract of Alcaligenes eutrophus D(S)-b-Phe consumed at t = 1 Hr [6]: 3.37
- NB Culture Extract of Alcaligenes eutrophus L(R)-b-Phe consumed at t = 1 Hr [6]: 48.61

Compound: N[C@H](CC(=O)O)c1cccc([N+](=O)[O-])c1 [m-nitro-β-phenylalanine]
- Peak consumption (later eluting peak) ([1]; cell lysate, 23 hours): 95%

Compound: O=C(O)C(=O)Cc1ccccc1F [o-fluoro-phenyl-2-oxopropanoic acid]
- product stereoisomer peak observed [4, 7]: only later eluting peak was observed
- β-amino acid formed, using β-phenylalanine as standard [4, 7]: approximately 0.02 mg/mL

Compound: N[C@H](CC(=O)O)c1ccccc1F [o-fluoro-β-phenylalanine]
- Peak consumption (later eluting peak) ([1]; cell lysate, 67 hours): 99%
- Peak consumption (later eluting peak) ([1]; cell lysate, 67 hours, listed as o-fluoro-α-phenylalanine): 99%

Compound: N[C@H](CC(=O)O)c1ccc(F)cc1 [p-fluoro-β-phenylalanine]
- Peak consumption (later eluting peak) ([1]; cell lysate, 23 hours): 82%

Compound: COc1ccc([C@H](N)CC(=O)O)cc1 [p-methoxy-β-phenylalanine]
- Peak consumption (later eluting peak) ([1]; cell lysate, 23 hours): 80%

Compound: N[C@H](CC(=O)O)c1ccc([N+](=O)[O-])cc1 [p-nitro-β-phenylalanine]
- Peak consumption (later eluting peak) ([1]; sodium sulfate purified beta-aminotransferase, 30 minutes): 98%
- Peak consumption (later eluting peak) ([1]; sodium sulfate purified beta-aminotransferase, 30 minutes, listed as p-nitro-α-phenylalanine): approximately 98%
- later eluting peak remaining ([1]; sodium sulfate purified beta-aminotransferase, after 1 hour): not detected
- change in the concentration of the early eluting stereoisomer ([1]; sodium sulfate purified beta-aminotransferase, after 18 hours): no detectable change

Compound: N[C@H](Cc1ccccc1)C(=O)O [α-(D)-phenylalanine]
- substrate for the enzyme (amino donor) [5]: Only β-(D)-phenylalanine and (D)-3-amino-5-phenylpenantoic acid were substrates

Compound: N[C@@H](Cc1ccccc1)C(=O)O [α-(L)-phenylalanine]
- substrate for the enzyme (amino donor) [5]: Only β-(D)-phenylalanine and (D)-3-amino-5-phenylpenantoic acid were substrates

Compound: O=C(O)CCC(=O)C(=O)O [α-ketoglutarate]
- Relative Activity [3]: 100%
- MSB Culture Extract D(S)-b-Phe consumed at t = 1 Hr [6]: 0.966
- MSB Culture Extract L(R)-b-Phe consumed at t = 1 Hr [6]: 6.9281
- NB Culture Extract of Alcaligenes eutrophus D(S)-b-Phe consumed at t = 1 Hr [6]: 0.00
- NB Culture Extract of Alcaligenes eutrophus L(R)-b-Phe consumed at t = 1 Hr [6]: 3.41

Compound: N[C@@H](CC(=O)O)c1ccccc1 [β-(D)-phenylalanine, D- or (S)-3-amino-3-phenylpropionic acid]
- substrate for the enzyme (amino donor) [5]: substrates for the enzyme
- preference of the enzyme for the enantiomer ([5]; enzyme preferring α-ketoglutarate as amino acceptor, no activity on the L-enantiomer): 100%

Compound: N[C@H](CC(=O)O)c1ccccc1 [β-(L)-phenylalanine, L- or (R)-3-amino-3-phenylpropionic acid]
- substrate for the enzyme (amino donor) [5]: Only β-(D)-phenylalanine and (D)-3-amino-5-phenylpenantoic acid were substrates
- preference of the enzyme for the enantiomer ([6]; enzyme preferring pyruvic acid as amino acceptor, no activity on the D-enantiomer): 100%
